From BindingDB's records for doi:10.1016/j.bmcl.2021.127861 (Neuropore Therapies, 2021)

Target: Tumor necrosis factor (Homo sapiens, UniProt P01375)
Assay: Inhibition of TNFalpha (unknown origin) in HEK-Blue-hTLR2 cells assessed as inhibition of TNFalpha-induced NFkappaB activation pretreated for 2 hrs followed by incubation with TNFalpha for 18 hrs by SEAP assay

Chain of Tumor necrosis factor (P01375 whole entry): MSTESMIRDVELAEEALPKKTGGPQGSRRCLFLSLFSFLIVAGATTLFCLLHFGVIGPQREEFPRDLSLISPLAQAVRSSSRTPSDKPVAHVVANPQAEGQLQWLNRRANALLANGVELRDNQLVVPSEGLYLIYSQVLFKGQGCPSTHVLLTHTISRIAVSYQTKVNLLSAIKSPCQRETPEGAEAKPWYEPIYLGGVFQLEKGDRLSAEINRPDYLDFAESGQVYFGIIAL

Structure (SMILES)	IC50 [µM]
CCCCCCCCCCCCCCOCC(CNC(=O)[C@@H](N)CCCCN)OCCCCCCCCCCCCCC (some centres not stated)	> 30
CCCCCCCCCCCCCCOCC(CNC(=O)C(CC1CCNCC1)NC(=O)OCC1c2ccccc2-c2ccccc21)OCCCCCCCCCCCCCC (configuration not stated)	> 30
CCCCCCCCCCCCCCOCC(CNC(=O)[C@H]1CC[C@H](N)CC1)OCCCCCCCCCCCCCC (some centres not stated)	> 30
CCCCCCCCCCCCCCOCC(CNC(=O)CCCCCN)OCCCCCCCCCCCCCC (configuration not stated)	> 30
CCCCCCCCCCCCCCOCC(CNC(=O)[C@@H](CCCCN)NCc1ccccc1)OCCCCCCCCCCCCCC (some centres not stated)	> 30
CCCCCCCCCCCCCCOCC(CNC(=O)C1(NC(=O)OCc2ccccc2)CCNCC1)OCCCCCCCCCCCCCC (configuration not stated)	> 30
CCCCCCCCCCCCCCOCC(CNC(=O)[C@H](CCCCN)NC(C)=O)OCCCCCCCCCCCCCC (some centres not stated)	> 30
CCCCCCCCCCCCCCOCC(CNC(=O)CCN)OCCCCCCCCCCCCCC (configuration not stated)	> 30
CCCCCCCCCCCCCCOCC(CNC(=O)c1cccc(C2CCNCC2)c1)OCCCCCCCCCCCCCC (configuration not stated)	> 30
CCCCCCCCCCCCCCOCC(CNC(=O)[C@H]1CCCN1)OCCCCCCCCCCCCCC (some centres not stated)	> 30
CCCCCCCCCCCCCCOCC(CNC(=O)c1cccc(N2CCNCC2)c1)OCCCCCCCCCCCCCC (configuration not stated)	> 30
CCCCCCCCCCCCCCOCC(CNC(=O)CC[C@H](NC(=O)OCC1c2ccccc2-c2ccccc21)C(=O)O)OCCCCCCCCCCCCCC (some centres not stated)	> 30
CCCCCCCCCCCCCCOCC(CNC(=O)[C@H](CCCCN)NCc1ccccc1)OCCCCCCCCCCCCCC (some centres not stated)	> 30
CCCCCCCCCCCCCCOCC(CNC(=O)[C@@H](CCCCN)NC(=O)OCc1ccccc1)OCCCCCCCCCCCCCC (some centres not stated)	> 30
CCCCCCCCCCCCCCOCC(CNC(=O)[C@H](CCCCN)NCc1ccc(F)cc1)OCCCCCCCCCCCCCC (some centres not stated)	> 30
CCCCCCCCCCCCCCOCC(CNC(=O)[C@H](CCCCN)NC(=O)OCC1c2ccccc2-c2ccccc21)OCCCCCCCCCCCCCC (some centres not stated)	> 30
CCCCCCCCCCCCCCOCC(CNC(=O)[C@H](CCCCN)NCc1ccc(-c2ccccc2)cc1)OCCCCCCCCCCCCCC (some centres not stated)	> 30
